The supplement of paper PMC10627819

What was measured:
S. aureus Newman [1] = experiment: Bliss interaction score (quartile over a dose matrix) (fitness difference); higher = more antagonism (negative = synergy)
Outline: (§1)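 Fitness was derived from optical density at entry into stationary phase, divided by the robust mean of the no-drug wells on the same plate. That reading was taken as OD595, and the ratio was capped at 1. Single-drug fitness was inferred from the combination data. The Bliss score, observed fitness minus the expected product of single-drug fitness, was summarised as quartiles over technical, biological and donor/recipient replicates.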

S. aureus DSM 20231 = experiment: as above
Outline: as §1

S. pneumoniae D39V [2] = experiment: as above
Outline: as §1

B. subtilis 168 = experiment: as above
Outline: as §1

S. aureus Newman [3] = experiment: fitness (endpoint OD595 vs no drug) (fraction); higher = more growth
Outline: (§2)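 Bacterial growth was followed in 384-well plates seeded at OD595 0.01, with 30 µl per well, or 55 µl for S. pneumoniae, in TSB, LB Lennox or CY at 37 °C. OD595 was read every 30 min for 14 h, and each reading had the first reading subtracted as background. Fitness is the background-corrected optical density at entry into stationary phase divided by the robust mean of the no-drug control wells. This ratio is capped at 1.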

S. pneumoniae D39V [4] = experiment: as above
Outline: as §2
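Wherever Bliss interaction score (quartile over a dose matrix) is given: first quartile when negative (synergy) and third quartile when positive (antagonism).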

CN(C)c1cc(NC(=O)CNC(C)(C)C)c(O)c2c1C[C@H]1C[C@H]3[C@H](N(C)C)C(O)=C(C(N)=O)C(=O)[C@@]3(O)C(O)=C1C2=O [Tigecycline] + CN[C@H](CC(C)C)C(=O)N[C@H]1C(=O)N[C@@H](CC(N)=O)C(=O)N[C@H]2C(=O)N[C@H]3C(=O)N[C@H](C(=O)N[C@H](C(=O)O)c4cc(O)cc(O)c4-c4cc3ccc4O)[C@H](O)c3ccc(c(Cl)c3)Oc3cc2cc(c3O[C@@H]2O[C@H](CO)[C@@H](O)[C@H](O)[C@H]2O[C@H]2C[C@](C)(N)[C@H](O)[C@H](C)O2)Oc2ccc(cc2Cl)[C@H]1O [Vancomycin]
Conditions	Bliss interaction score
B. subtilis 168	0.0787
S. aureus DSM 20231	0.0923
S. aureus Newman [1]	0.0428
S. pneumoniae D39V [2]	0.0783

Conditions	fitness
S. aureus Newman [3], first compound 0.039 µg/mL, partner 0.1875 µg/mL	0.974
S. aureus Newman [3], first compound 0.039 µg/mL, partner 0.375 µg/mL	0.998
S. aureus Newman [3], first compound 0.039 µg/mL, partner 0.75 µg/mL	≥ 1
S. aureus Newman [3], first compound 0.078 µg/mL, partner 0.1875 µg/mL	≥ 1
S. aureus Newman [3], first compound 0.078 µg/mL, partner 0.375 µg/mL	0.99
S. aureus Newman [3], first compound 0.078 µg/mL, partner 0.75 µg/mL	0.987
S. aureus Newman [3], first compound 0.156 µg/mL, partner 0.1875 µg/mL	0.992
S. aureus Newman [3], first compound 0.156 µg/mL, partner 0.375 µg/mL	≥ 1
S. aureus Newman [3], first compound 0.156 µg/mL, partner 0.75 µg/mL	0.987
S. pneumoniae D39V [4], first compound 0.65 µg/mL, partner 0.03125 µg/mL	0.967
S. pneumoniae D39V [4], first compound 0.65 µg/mL, partner 0.0625 µg/mL	0.939
S. pneumoniae D39V [4], first compound 0.65 µg/mL, partner 0.125 µg/mL	0.871
S. pneumoniae D39V [4], first compound 0.65 µg/mL, partner 0.5 µg/mL	0.0606
S. pneumoniae D39V [4], first compound 1.3 µg/mL, partner 0.03125 µg/mL	0.989
S. pneumoniae D39V [4], first compound 1.3 µg/mL, partner 0.0625 µg/mL	0.937
S. pneumoniae D39V [4], first compound 1.3 µg/mL, partner 0.125 µg/mL	0.882
S. pneumoniae D39V [4], first compound 1.3 µg/mL, partner 0.5 µg/mL	0.0528
S. pneumoniae D39V [4], first compound 2.6 µg/mL, partner 0.03125 µg/mL	0.961
S. pneumoniae D39V [4], first compound 2.6 µg/mL, partner 0.0625 µg/mL	0.962
S. pneumoniae D39V [4], first compound 2.6 µg/mL, partner 0.125 µg/mL	0.918
S. pneumoniae D39V [4], first compound 2.6 µg/mL, partner 0.25 µg/mL	0.543
S. pneumoniae D39V [4], first compound 2.6 µg/mL, partner 0.5 µg/mL	0.0988

C[C@@H]1O[C@@H]1P(=O)(O)O [Fosfomycin] + C/C(=C\C(=O)OCCCCCCCCC(=O)O)C[C@@H]1OC[C@H](C[C@@H]2O[C@H]2[C@@H](C)[C@H](C)O)[C@@H](O)[C@H]1O [Pseudomonic acid]
Conditions	Bliss interaction score
B. subtilis 168	0.0483
S. aureus DSM 20231	0.0164
S. aureus Newman [1]	-0.0091
S. pneumoniae D39V [2]	-0.0714

fitness, S. aureus Newman [3], one replicate
Conditions	first compound 0.781 µg/mL	first compound 1.562 µg/mL	first compound 3.124 µg/mL
partner 0.0313 µg/mL	0.0359	0.0031	0.0112
partner 0.0625 µg/mL	0.0247	0.0394	0.0147
partner 0.125 µg/mL	0.0275	0.0351	0.0342

fitness, S. pneumoniae D39V [4]
Conditions	first compound 1.25 µg/mL	first compound 2.5 µg/mL	first compound 5 µg/mL
partner 0.03 µg/mL	0.928	0.937	0.868
partner 0.06 µg/mL	0.803	0.882	–
partner 0.12 µg/mL	0.531	0.454	0.201

O=C(O)c1cn(C2CC2)c2cc(N3CCNCC3)c(F)cc2c1=O [Ciprofloxacin] + CCCCCCCCCC(=O)N[C@@H]1[C@H]([C@@H]([C@H](O[C@H]1OC2=C3C=C4C=C2OC5=C(C=C(C=C5)[C@H]([C@H]6C(=O)N[C@@H](C7=C(C(=CC(=C7)O)OC8[C@H]([C@H]([C@@H]([C@H](O8)CO)O)O)O)C9=C(C=CC(=C9)[C@H](C(=O)N6)NC(=O)[C@@H]4NC(=O)[C@@H]1C2=CC(=CC(=C2)OC2=C(C=CC(=C2)[C@H](C(=O)N[C@H](CC2=CC(=C(O3)C=C2)Cl)C(=O)N1)N)O)O)O)C(=O)O)O[C@H]1[C@@H]([C@H]([C@@H]([C@H](O1)CO)O)O)NC(=O)C)Cl)CO)O)O [Teicoplanin]
main component drawn
Conditions	Bliss interaction score
B. subtilis 168	-0.1
S. aureus DSM 20231	0.0835
S. aureus Newman [1]	-0.0935
S. pneumoniae D39V [2]	-0.063

fitness, S. aureus Newman [3], main component drawn
Conditions	first compound 0.0375 µg/mL	first compound 0.075 µg/mL	first compound 0.15 µg/mL
partner 0.1562 µg/mL	0.681	0.629	0.0421
partner 0.3125 µg/mL	0.713	0.626	0.0116
partner 0.625 µg/mL	0.608	0.534	0.0117

fitness, S. aureus Newman [3], one replicate, main component drawn
Conditions	first compound 0.078 µg/mL	first compound 0.156 µg/mL	first compound 0.312 µg/mL
partner 0.62 µg/mL	0.535	0.0341	0.036
partner 1.24 µg/mL	0.372	0.0368	0.0337
partner 2.48 µg/mL	0.0816	0.0702	0.0565

O=C(O)c1cn(C2CC2)c2cc(N3CCNCC3)c(F)cc2c1=O [Ciprofloxacin] + Cn1nnc(-c2ccc(-c3ccc(N4C[C@H](CO)OC4=O)cc3F)cn2)n1 [Tedizolid]
Conditions	Bliss interaction score
B. subtilis 168	0.26
S. aureus DSM 20231	0.0744
S. aureus Newman [1]	0.0978
S. pneumoniae D39V [2]	-0.0691

fitness
Conditions	partner 0.03125 µg/mL	partner 0.0625 µg/mL	partner 0.125 µg/mL	partner 0.25 µg/mL	partner 0.5 µg/mL
S. aureus Newman [3], first compound 0.0375 µg/mL	–	–	0.633	–	–
S. aureus Newman [3], first compound 0.075 µg/mL	–	0.56	0.592	0.423	–
S. aureus Newman [3], first compound 0.15 µg/mL	–	–	–	0.13	–
S. pneumoniae D39V [4], first compound 0.125 µg/mL	0.935	0.95	0.771	0.331	0.102
S. pneumoniae D39V [4], first compound 0.25 µg/mL	0.913	0.945	0.703	–	–
S. pneumoniae D39V [4], first compound 0.5 µg/mL	0.828	0.889	–	0.292	0.0949

S. pneumoniae D39V [4], first compound 0.25 µg/mL, one replicate
Conditions	fitness
partner 0.25 µg/mL	0.257
partner 0.5 µg/mL	0.0574

O=C(O)c1cn(C2CC2)c2cc(N3CCNCC3)c(F)cc2c1=O [Ciprofloxacin] + C/C(=C\C(=O)OCCCCCCCCC(=O)O)C[C@@H]1OC[C@H](C[C@@H]2O[C@H]2[C@@H](C)[C@H](C)O)[C@@H](O)[C@H]1O [Pseudomonic acid]
Conditions	Bliss interaction score
B. subtilis 168	0.0413
S. aureus DSM 20231	0.0149
S. aureus Newman [1]	0.0616
S. pneumoniae D39V [2]	0.0559

fitness, S. aureus Newman [3], one replicate
Conditions	first compound 0.078 µg/mL	first compound 0.156 µg/mL	first compound 0.312 µg/mL
partner 0.0313 µg/mL	0.0919	0.0675	0.0586
partner 0.0625 µg/mL	0.052	0.0404	0.0324
partner 0.125 µg/mL	0.0642	0.0505	0.0607

fitness, S. pneumoniae D39V [4]
Conditions	first compound 0.125 µg/mL	first compound 0.25 µg/mL	first compound 0.5 µg/mL
partner 0.03 µg/mL	0.92	0.877	–
partner 0.06 µg/mL	0.828	0.742	–
partner 0.12 µg/mL	0.444	0.551	0.393

CO/N=C(\C(=O)N[C@@H]1C(=O)N2C(C(=O)O)=C(COC(N)=O)CS[C@H]12)c1ccco1 [Cefuroxime] + Cn1nnc(-c2ccc(-c3ccc(N4C[C@H](CO)OC4=O)cc3F)cn2)n1 [Tedizolid]
Conditions	Bliss interaction score
B. subtilis 168	0.136
S. aureus DSM 20231	-0.223
S. aureus Newman [1]	0.259
S. pneumoniae D39V [2]	0.026

fitness, S. aureus Newman [3], one replicate
Conditions	first compound 0.04875 µg/mL	first compound 0.0975 µg/mL	first compound 0.195 µg/mL
partner 0.0625 µg/mL	0.614	0.641	0.517
partner 0.125 µg/mL	0.0599	0.0707	0.0587
partner 0.25 µg/mL	0.496	0.513	0.425

CO/N=C(\C(=O)N[C@@H]1C(=O)N2C(C(=O)O)=C(COC(N)=O)CS[C@H]12)c1ccco1 [Cefuroxime] + CCCCCCCCCC(=O)N[C@@H]1[C@H]([C@@H]([C@H](O[C@H]1OC2=C3C=C4C=C2OC5=C(C=C(C=C5)[C@H]([C@H]6C(=O)N[C@@H](C7=C(C(=CC(=C7)O)OC8[C@H]([C@H]([C@@H]([C@H](O8)CO)O)O)O)C9=C(C=CC(=C9)[C@H](C(=O)N6)NC(=O)[C@@H]4NC(=O)[C@@H]1C2=CC(=CC(=C2)OC2=C(C=CC(=C2)[C@H](C(=O)N[C@H](CC2=CC(=C(O3)C=C2)Cl)C(=O)N1)N)O)O)O)C(=O)O)O[C@H]1[C@@H]([C@H]([C@@H]([C@H](O1)CO)O)O)NC(=O)C)Cl)CO)O)O [Teicoplanin]
main component drawn
Conditions	Bliss interaction score
B. subtilis 168	-0.0964
S. aureus DSM 20231	0.15
S. aureus Newman [1]	0.0304
S. pneumoniae D39V [2]	-0.0352

fitness, S. aureus Newman [3], one replicate, main component drawn
Conditions	first compound 0.04875 µg/mL	first compound 0.0975 µg/mL	first compound 0.195 µg/mL
partner 0.1562 µg/mL	≥ 1	0.968	0.888
partner 0.3125 µg/mL	0.991	0.968	0.953
partner 0.625 µg/mL	≥ 1	0.977	0.973
